test system: Articular cartilage explants; experiment: IL1β-induced glycosaminoglycan (GAG) release from 35S-labelled articular cartilage explants; type: cell-based, cows; conditions: polyphenolic compounds extracted e.g. from rosemary plants; qualitative statement
Text: Articular cartilage explants are dissected out of the metacarpophalangeal joint of old cows (8-10 years). The skin is removed from the feet. The articulation is opened transversally. Intra articular ligaments are transected. Full thickness slices of cartilage are dissected out and put in a Petri dish containing DMEM supplemented with 20% FBS ([…]) and antibiotics (penicillin, streptomycin and gentamycin). Under the hood, disks of cartilage obtained by using a biopsy punch (6 mm in diameter) are distributed between the wells of a 96-wells plate containing 200 μl of medium (DMEM+20% FBS, 1% penicillin/streptomycin, 0.1% gentamycin) per well. Finally, plates are put into an incubator (37° C./5% CO2).
Five days after their harvest, the explants are divided into several different treatment conditions:
1—negative control: the wells contain only culture medium. 2—positive stimulatory control: Interleukin 1β(IL1β) is added to the media at the concentration of 50 ng per ml. This cytokine is used to stimulate the catabolism and to induce inflammation. 3—positive inhibitory control: d15-PGJ2 (a peroxisome proliferator activated receptor γ agonist) and hymenialdisine are co-added, to the medium, with IL1β, to counteract the catabolic effect of this cytokine (Sabatini M, et al. (2002) Osteoarthritis Cartilage 10(9): 673-679; Scher J U, et al. (2005) Clin Immunol 114(2): 100-109; Boyault S, et al. (2001) Febs Letters 501(1): 24-30) 4, 5, 6, 7, 8 (if present)—tested compounds: these conditions test the effects of three concentrations of a polyphenol in presence of IL1β.
The explants undergo these treatments for 72 hours in the incubator (37° C., 5% CO2). The following protocol is based on the disclosure of Campbell et al. (1984) Arch Biochem Biophys 234(1): 275-289 and Hascall V C, et al. (1983) ArchBiochem Biophys 224(1): 206-223 and was carried out 48 hours after the harvest of the explants,
Sulphur 35 (35S) was added to the medium to be incorporated into newly synthesized polysulfated glycosaminoglycans within the extracellular matrix of the explants. After 72 hours, several washes were performed to eliminate the non-incorporated radioactivity. The explants were then treated for 72 hours, after which the supernatants were collected and the amount of radioactivity released in the medium was measured with a beta counter, as a marker of glycosaminoglycan (GAG) catabolism. The radioactivity present in the explants was also measured and used to normalize the amount of radioactivity released in the media. The radioactivity was expressed in DPM ([…]) and the GAG release was assessed by the following formula:
GAG release=radioactivity in the supernatants/(radioactivity in the supernatants+radioactivity in the explants)

| Structure (SMILES) | anti-catabolic potential |
| --- | --- |
| COc1c(O)cc2oc(-c3ccc(O)c(O)c3)cc(=O)c2c1O [6-methoxy-luteolin] | anti-catabolic potential |
| COc1c(OC2OC(COC(=O)C=Cc3ccc(O)cc3)C(O)C(O)C2O)cc2oc(-c3ccc(O)c(O)c3)cc(=O)c2c1O (stereo not shown) [6″-Coumaroylnepitrin] | anti-catabolic potential |
| COc1cc(C=CC(=O)OCC2OC(Oc3cc4oc(-c5ccc(O)c(O)c5)cc(=O)c4c(O)c3OC)C(O)C(O)C2O)ccc1O (stereo not shown) [6″-Feruloylnepitrin] | anti-catabolic potential |
| CC(C)c1cc2c(c(O)c1O)C13CCCC(C)(C)C1C(OC3=O)C2O (stereo not shown) [7-epirosmannol] | anti-catabolic potential |
| CC(C)c1cc2c(c(O)c1O)[C@@]13CCCC(C)(C)[C@@H]1C[C@@H]2OC3=O [carnosol] | anti-catabolic potential |
| COc1cc2oc(-c3ccc(O)cc3)cc(=O)c2c(O)c1OC [cirsimaritin] | anti-catabolic potential |
| O=c1c(O)c(-c2ccc(O)cc2)oc2cc(O)cc(O)c12 [kaempferol] | anti-catabolic potential |
| O=c1cc(-c2ccc(O)c(O)c2)oc2cc(O)cc(O)c12 [luteolin] | anti-catabolic potential |
| CC(C)c1cc2c(c(O)c1O)[C@@]13CCCC(C)(C)[C@@H]1[C@H](OC3=O)[C@H]2O [rosmanol] | anti-catabolic potential |
| O=C(/C=C/c1ccc(O)c(O)c1)O[C@H](Cc1ccc(O)c(O)c1)C(=O)O [rosmarinic acid] | anti-catabolic potential |

— US20110160136A1, “POLYPHENOLS FOR THE TREATMENT OF CARTILAGE DISORDERS” (NESTEC S.A., priority 2008, published 2011)
